Test results reported in patent publication US9890149B2 (NuBridge BioSciences, priority 2015, dated 2018).
Counter-ions that a name gives are not always drawn.

Target: T1, ΔF508 mutant CFTR (Homo sapiens, UniProt P13569, DEL508-508)
T1 construct: expressed in transfected cells; host or cells: Fischer rat thyroid (FRT) cells
Test: Fluorescence Assay (halide-sensitive YFP, iodide influx) for ΔF508 mutant CFTR activity
Type: cell-based
Details: FRT cells expressing ΔF508-CFTR and YFP-H148Q/I152L, incubated 27° C. 20-24 h; forskolin (20 μM) and test compounds (20 μM) for 20 min; rate of fluorescence quenching by I−, normalized to forskolin alone
Excerpt: The ΔF508 mutant CFTR activities of the CFTR modulators are detected using the Fluorescence Assay developed by Pedemonte (Pedemonte N., et al., Antihypertensive 1,4-dihydropyridines as correctors of the cystic fibrosis transmembrane conductance regulator channel gating defect caused by cystic fibrosis mutations, Mol. Pharmacol., 2005, 68, 1736-1746).
Fischer rat thyroid (FRT) cells, stably transfected with ΔF508 were retransfected with the YFP-H148Q/I152L fluorescent protein. The cells were plated (100,000 cells/well) on black 96-well microplates with clear plastic bottom (Corning Life Sciences, Acton, Mass.).
The 96-well microplates containing FRT cells expressing F508-CFTR and the halide-sensitive YFP were incubated at 27° C. for 20 to 24 h to allow rescue of the mutant protein to the plasma membrane. After incubation, cells were washed with PBS (containing 137 mM NaCl, 2.7 mM KCl, 8.1 mM Na2HPO4, 1.5 mM KH2PO4, 1 mM CaCl2, and 0.5 mM MgCl2) and stimulated for 20 min with forskolin (20 μM) and test compounds (20 μM) in a final volume of […] Microplates were then transferred to a microplate reader for CFTR activity determination.

T1 sequence (P13569 with tags, fused parts or gaps DEL508-508): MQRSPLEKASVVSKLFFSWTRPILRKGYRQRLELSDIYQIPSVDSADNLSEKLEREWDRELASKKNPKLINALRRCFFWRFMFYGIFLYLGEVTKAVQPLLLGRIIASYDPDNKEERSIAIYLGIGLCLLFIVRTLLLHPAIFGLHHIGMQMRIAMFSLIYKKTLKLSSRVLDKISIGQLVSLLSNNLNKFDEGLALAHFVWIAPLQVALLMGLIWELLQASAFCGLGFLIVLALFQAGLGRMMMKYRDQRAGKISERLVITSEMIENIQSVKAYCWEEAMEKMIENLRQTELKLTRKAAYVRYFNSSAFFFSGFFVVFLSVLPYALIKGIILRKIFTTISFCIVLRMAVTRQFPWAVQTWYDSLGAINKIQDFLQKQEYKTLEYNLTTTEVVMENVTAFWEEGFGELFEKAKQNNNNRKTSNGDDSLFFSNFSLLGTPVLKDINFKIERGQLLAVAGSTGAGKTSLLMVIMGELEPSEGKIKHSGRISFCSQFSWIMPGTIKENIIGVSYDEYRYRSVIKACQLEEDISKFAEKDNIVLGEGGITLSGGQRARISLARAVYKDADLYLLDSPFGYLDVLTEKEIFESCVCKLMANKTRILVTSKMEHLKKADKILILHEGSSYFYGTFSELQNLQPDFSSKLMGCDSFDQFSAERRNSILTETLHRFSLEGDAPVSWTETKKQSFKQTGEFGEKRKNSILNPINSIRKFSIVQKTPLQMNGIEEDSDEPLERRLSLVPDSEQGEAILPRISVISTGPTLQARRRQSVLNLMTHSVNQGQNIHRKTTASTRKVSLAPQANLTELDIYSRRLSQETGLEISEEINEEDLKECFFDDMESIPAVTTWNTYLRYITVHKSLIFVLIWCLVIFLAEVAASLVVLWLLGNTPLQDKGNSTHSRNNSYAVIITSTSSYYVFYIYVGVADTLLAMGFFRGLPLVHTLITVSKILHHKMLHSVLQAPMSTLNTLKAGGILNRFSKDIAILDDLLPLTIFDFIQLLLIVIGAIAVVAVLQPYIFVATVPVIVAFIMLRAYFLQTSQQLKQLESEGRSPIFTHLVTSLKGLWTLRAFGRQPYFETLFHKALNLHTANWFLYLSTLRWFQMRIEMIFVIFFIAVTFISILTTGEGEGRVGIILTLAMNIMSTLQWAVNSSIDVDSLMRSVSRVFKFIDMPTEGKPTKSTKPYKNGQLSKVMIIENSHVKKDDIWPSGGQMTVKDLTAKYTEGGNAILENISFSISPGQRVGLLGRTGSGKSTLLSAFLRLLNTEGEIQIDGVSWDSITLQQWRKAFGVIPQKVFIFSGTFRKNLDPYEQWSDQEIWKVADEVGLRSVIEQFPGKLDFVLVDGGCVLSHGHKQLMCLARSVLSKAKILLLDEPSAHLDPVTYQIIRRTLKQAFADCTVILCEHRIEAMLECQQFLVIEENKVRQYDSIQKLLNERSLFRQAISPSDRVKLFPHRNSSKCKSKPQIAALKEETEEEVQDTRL

SMILES | CFTR Activity
Cl.O=C(Nc1cnsc1OCC1CCNCC1)c1ccc(F)c(-c2c(F)cccc2F)n1 [Example 1, 6-(2,6-difluorophenyl)-5-fluoro-N-(5-(piperidin-4-ylmethoxy)isothiazol-4-yl)picolinamide hydrochloride] | 0.9
Cl.O=C(Nc1cnsc1OCC1CNC1)c1ccc(F)c(-c2c(F)cccc2F)n1 [Example 2, N-(5-(azetidin-3-ylmethoxy)isothiazol-4-yl)-6-(2,6-difluorophenyl)-5-fluoropicolinamide hydrochloride] | 0.2
Cl.O=C(Nc1cnsc1OC1CCNCC1)c1ccc(F)c(-c2c(F)cccc2F)n1 [Example 3, 6-(2,6-difluorophenyl)-5-fluoro-N-(5-(piperidin-4-yloxy)isothiazol-4-yl)picolinamide hydrochloride] | 1.3
Cl.O=C(Nc1cnsc1OC1CCNC1)c1ccc(F)c(-c2c(F)cccc2F)n1 (centres unmarked) [Example 4, 6-(2,6-difluorophenyl)-5-fluoro-N-(5-(pyrrolidin-3-yloxy)isothiazol-4-yl)picolinamide hydrochloride] | 0.8
Cl.O=C(Nc1cnsc1OC1CCCNC1)c1ccc(F)c(-c2c(F)cccc2F)n1 (centres unmarked) [Example 5, 6-(2,6-difluorophenyl)-5-fluoro-N-(5-(piperidin-3-yloxy)isothiazol-4-yl)picolinamide hydrochloride] | 0.5
Cl.O=C(Nc1cnsc1OC1CCCNCC1)c1ccc(F)c(-c2c(F)cccc2F)n1 (centres unmarked) [Example 6, N-(5-(azepan-4-yloxy)isothiazol-4-yl)-6-(2,6-difluorophenyl)-5-fluoropicolinamide hydrochloride] | 1.4
Cl.O=C(Nc1cnsc1OCC1CCCNC1)c1ccc(F)c(-c2c(F)cccc2F)n1 (centres unmarked) [Example 7, 6-(2,6-difluorophenyl)-5-fluoro-N-(5-(piperidin-3-ylmethoxy)isothiazol-4-yl)picolinamide hydrochloride] | 0.9
Cl.O=C(Nc1cnsc1OCC1CCNC1)c1ccc(F)c(-c2c(F)cccc2F)n1 (centres unmarked) [Example 8, 6-(2,6-difluorophenyl)-5-fluoro-N-(5-(pyrrolidin-3-ylmethoxy)isothiazol-4-yl)picolinamide hydrochloride] | 0.7
Cl.O=C(Nc1cnsc1OC1CNC1)c1ccc(F)c(-c2c(F)cccc2F)n1 [Example 9, N-(5-(azetidin-3-yloxy)isothiazol-4-yl)-6-(2,6-difluorophenyl)-5-fluoropicolinamide hydrochloride] | 0.1
Cl.N[C@H]1CC[C@H](Oc2sncc2NC(=O)c2ccc(F)c(-c3c(F)cccc3F)n2)CC1 [Example 10, N-(5-(((1r,4r)-4-aminocyclohexyl)oxy)isothiazol-4-yl)-6-(2,6-difluorophenyl)-5-fluoropicolinamide hydrochloride] | 1
Cl.NC1CCCC(Oc2sncc2NC(=O)c2ccc(F)c(-c3c(F)cccc3F)n2)C1 (centres unmarked) [Example 11, N-(5-((3-aminocyclohexyl)oxy)isothiazol-4-yl)-6-(2,6-difluorophenyl)-5-fluoropicolinamide hydrochloride] | 1.1
Cl.NCCCOc1sncc1NC(=O)c1ccc(F)c(-c2c(F)cccc2F)n1 [Example 12, N-(5-(3-aminopropoxy)isothiazol-4-yl)-6-(2,6-difluorophenyl)-5-fluoropicolinamide hydrochloride] | 0.7
CNCCCOc1sncc1NC(=O)c1ccc(F)c(-c2c(F)cccc2F)n1.Cl [Example 13, 6-(2,6-difluorophenyl)-5-fluoro-N-(5-(3-(methylamino)propoxy)isothiazol-4-yl)picolinamide hydrochloride] | 0.5
CN(C)CCCOc1sncc1NC(=O)c1ccc(F)c(-c2c(F)cccc2F)n1.Cl [Example 14, 6-(2,6-difluorophenyl)-N-(5-(3-(dimethylamino)propoxy)isothiazol-4-yl)-5-fluoropicolinamide hydrochloride] | 0.3
Cl.NCCCCOc1sncc1NC(=O)c1ccc(F)c(-c2c(F)cccc2F)n1 [Example 15, N-(5-(4-aminobutoxy)isothiazol-4-yl)-6-(2,6-difluorophenyl)-5-fluoropicolinamide hydrochloride] | 0.7
CNCCCCOc1sncc1NC(=O)c1ccc(F)c(-c2c(F)cccc2F)n1.Cl [Example 16, 6-(2,6-difluorophenyl)-5-fluoro-N-(5-(4-(methylamino)butoxy)isothiazol-4-yl)picolinamide hydrochloride] | 0.5

SMILES | CFTR Activity
O=C(Nc1cnsc1OCCCO)c1ccc(F)c(-c2c(F)cccc2F)n1 [Example 17, 6-(2,6-difluorophenyl)-5-fluoro-N-(5-(3-hydroxypropoxy)isothiazol-4-yl)picolinamide] | 0.1
CC(O)CCOc1sncc1NC(=O)c1ccc(F)c(-c2c(F)cccc2F)n1 (centres unmarked) [Example 18, 6-(2,6-difluorophenyl)-5-fluoro-N-(5-(3-hydroxybutoxy)isothiazol-4-yl)picolinamide] | 0.12
O=C(Nc1cnsc1OCCCCO)c1ccc(F)c(-c2c(F)cccc2F)n1 [Example 19, 6-(2,6-difluorophenyl)-5-fluoro-N-(5-(4-hydroxybutoxy)isothiazol-4-yl)picolinamide] | 0.1
CC(C)(O)CCCOc1sncc1NC(=O)c1ccc(F)c(-c2c(F)cccc2F)n1 [Example 20, 6-(2,6-difluorophenyl)-5-fluoro-N-(5-((4-hydroxy-4-methylpentyl)oxy)isothiazol-4-yl)picolinamide] | 0.1
O=C(Nc1cnsc1OCCC(O)CO)c1ccc(F)c(-c2c(F)cccc2F)n1 (centres unmarked) [Example 21, 6-(2,6-difluorophenyl)-N-(5-(3,4-dihydroxybutoxy)isothiazol-4-yl)-5-fluoropicolinamide] | 0.5
O=C(Nc1cnsc1OCC1CCOCC1)c1ccc(F)c(-c2c(F)cccc2F)n1 [Example 22, 6-(2,6-difluorophenyl)-5-fluoro-N-(5-((tetrahydro-2H-pyran-4-yl)methoxy)isothiazol-4-yl)picolinamide] | 0.3
Cl.Nc1cc(F)c(-c2c(F)cccc2F)nc1C(=O)Nc1cnsc1OCC1CCNCC1 [Example 23, 3-amino-6-(2,6-difluorophenyl)-5-fluoro-N-(5-(piperidin-4-ylmethoxy)isothiazol-4-yl)picolinamide hydrochloride] | 2.2
Cl.Nc1cc(F)c(-c2c(F)cccc2F)nc1C(=O)Nc1cnsc1OC1CCNC1 (centres unmarked) [Example 24, 3-amino-6-(2,6-difluorophenyl)-5-fluoro-N-(5-(pyrrolidin-3-yloxy)isothiazol-4-yl)picolinamide hydrochloride] | 1.9
Cl.Nc1cc(F)c(-c2c(F)cccc2F)nc1C(=O)Nc1cnsc1OC1CCNCC1 [Example 25, 3-amino-6-(2,6-difluorophenyl)-5-fluoro-N-(5-(piperidin-4-yloxy)isothiazol-4-yl)picolinamide hydrochloride] | 2.5
Cl.Nc1cc(F)c(-c2c(F)cccc2F)nc1C(=O)Nc1cnsc1OC1CCCNCC1 (centres unmarked) [Example 26, 3-amino-N-(5-(azepan-4-yloxy)isothiazol-4-yl)-6-(2,6-difluorophenyl)-5-fluoropicolinamide hydrochloride] | 3.1
Cl.Nc1cc(F)c(-c2c(F)cccc2F)nc1C(=O)Nc1cnsc1O[C@H]1CC[C@H](N)CC1 [Example 27, 3-amino-N-(5-(((1r,4r)-4-aminocyclohexyl)oxy)isothiazol-4-yl)-6-(2,6-difluorophenyl)-5-fluoropicolinamide hydrochloride] | 2.8
Cl.Nc1cc(F)c(-c2c(F)cccc2F)nc1C(=O)Nc1cnsc1OCC1CCNC1 (centres unmarked) [Example 28, 3-amino-6-(2,6-difluorophenyl)-5-fluoro-N-(5-(pyrrolidin-3-ylmethoxy)isothiazol-4-yl)picolinamide hydrochloride] | 1.7
NCC(CCl)Oc1sncc1NC(=O)c1ccc(F)c(-c2c(F)cccc2F)n1 (centres unmarked) [Example 29, N-(5-((1-amino-3-chloropropan-2-yl)oxy)isothiazol-4-yl)-6-(2,6-difluorophenyl)-5-fluoropicolinamide hydrochloride] | 1.4
Cl.NCC(CCl)COc1sncc1NC(=O)c1ccc(F)c(-c2c(F)cccc2F)n1 (centres unmarked) [Example 30, N-(5-(3-amino-2-(chloromethyl)propoxy)isothiazol-4-yl)-6-(2,6-difluorophenyl)-5-fluoropicolinamide hydrochloride] | 1.4
Cl.Nc1cc(F)c(-c2c(F)cccc2F)nc1C(=O)Nc1cnsc1OC1CNC1 [Example 31, 3-amino-N-(5-(azetidin-3-yloxy)isothiazol-4-yl)-6-(2,6-difluorophenyl)-5-fluoropicolinamide hydrochloride] | 0.1
Cl.Nc1cc(F)c(-c2c(F)cccc2F)nc1C(=O)Nc1cnsc1OCC1CNC1 [Example 32, 3-amino-N-(5-(azetidin-3-ylmethoxy)isothiazol-4-yl)-6-(2,6-difluorophenyl)-5-fluoropicolinamide hydrochloride] | 0.3
